Data published in US10131652B2, “Pyrimidinyloxy benzene derivatives as herbicides” (E. I. DU PONT DE NEMOURS AND COMPANY, priority 2014, dated 2018).

What was measured:
Experiment in all cases: Test D pre-/postemergence plant response
Assay type in all cases: in vivo
[1] = system: Italian ryegrass (Lolium multiflorum)
Summary of the method: (§1)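 Each compound, in non-phytotoxic solvent with surfactant, was sprayed onto soil right after sowing or onto young plants 2 to 18 cm tall. After 13 to 15 days under greenhouse conditions, effects were judged visually against controls on a 0 (no effect) to 100 (complete control) scale.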

[2] = system: barnyardgrass (Echinochloa crus-galli)
Summary of the method: as §1

[3] = system: blackgrass (Alopecurus myosuroides)
Summary of the method: as §1

corn (Zea mays) = system: corn (Zea mays)
Summary of the method: as §1

[4] = system: galium (catchweed bedstraw, Galium aparine)
Summary of the method: as §1

[5] = system: giant foxtail (Setaria faberii)
Summary of the method: as §1

[6] = system: johnsongrass (Sorghum halepense)
Summary of the method: as §1

[7] = system: lambsquarters (Chenopodium album)
Summary of the method: as §1

[8] = system: large (Lg) crabgrass (Digitaria sanguinalis)
Summary of the method: as §1

[9] = system: morningglory (Ipomoea coccinea)
Summary of the method: as §1

[10] = system: oilseed rape (Brassica napus)
Summary of the method: as §1

[11] = system: pigweed (Amaranthus retroflexus)
Summary of the method: as §1

[12] = system: ragweed (common ragweed, Ambrosia elatior)
Summary of the method: as §1

soybean (Glycine max) = system: soybean (Glycine max)
Summary of the method: as §1

[13] = system: velvetleaf (Abutilon theophrasti)
Summary of the method: as §1

[14] = system: waterhemp (common waterhemp, Amaranthus rudis)
Summary of the method: as §1

[15] = system: winter wheat (Triticum aestivum)
Summary of the method: as §1

[16] = system: yellow nutsedge (Cyperus esculentus)
Summary of the method: as §1

[17] = Postemergence, 16 g ai/ha, scale 0 to 100 (0 no effect, 100 complete control)
[18] = Postemergence, 31 g ai/ha, scale 0 to 100 (0 no effect, 100 complete control)
[19] = Postemergence, 62 g ai/ha, scale 0 to 100, 0 no effect, 100 complete control
[20] = Postemergence, 125 g ai/ha, scale 0 to 100, 0 no effect, 100 complete control
[21] = Preemergence, 16 g ai/ha, scale 0 to 100 (0 no effect, 100 complete control)
[22] = Preemergence, 31 g ai/ha, scale 0 to 100 (0 no effect, 100 complete control)
[23] = Preemergence, 62 g ai/ha, scale 0 to 100 (0 no effect, 100 complete control)

Fc1cccc(Oc2ncc(Br)cn2)c1-c1cc(C(F)F)on1 [Compound 118]
Ryegrass, Italian plant response rating [1, 17]: 0
Ryegrass, Italian plant response rating [1, 18]: 0
Plant response rating, Ryegrass, Italian [1, 19]: 5
Plant response rating, Ryegrass, Italian [1, 20]: 5
Plant response rating (scale 0 to 100), Ryegrass, Italian ([1]; Preemergence, 125 g ai/ha): 60
Plant response rating, Ryegrass, Italian [1, 21]: 0
Plant response rating, Ryegrass, Italian [1, 22]: 5
Plant response rating, Ryegrass, Italian [1, 23]: 65
Barnyardgrass plant response rating [2, 17]: 10
Barnyardgrass plant response rating [2, 18]: 20
Plant response rating, Barnyardgrass [2, 19]: 20
Plant response rating, Barnyardgrass [2, 20]: 30
Plant response rating (scale 0 to 100), Barnyardgrass ([2]; Preemergence, 62 g ai/ha): 100
Plant response rating (scale 0 to 100), Barnyardgrass ([2]; Preemergence, 125 g ai/ha): 100
Plant response rating, Barnyardgrass [2, 21]: 10
Plant response rating, Barnyardgrass [2, 22]: 60
Blackgrass plant response rating [3, 17]: 5
Blackgrass plant response rating [3, 18]: 10
Plant response rating, Blackgrass [3, 19]: 15
Plant response rating, Blackgrass [3, 20]: 35
Plant response rating (scale 0 to 100), Blackgrass ([3]; Preemergence, 125 g ai/ha): 90
Plant response rating, Blackgrass [3, 21]: 0
Plant response rating, Blackgrass [3, 22]: 10
Plant response rating, Blackgrass [3, 23]: 60
Corn plant response rating (corn (Zea mays); [17]): 5
Corn plant response rating (corn (Zea mays); [18]): 10
Plant response rating, Corn (corn (Zea mays); [19]): 15
Plant response rating, Corn (corn (Zea mays); [20]): 15
Plant response rating (scale 0 to 100), Corn (corn (Zea mays); Preemergence, 125 g ai/ha): 30
Plant response rating, Corn (corn (Zea mays); [21]): 0
Plant response rating, Corn (corn (Zea mays); [22]): 5
Plant response rating, Corn (corn (Zea mays); [23]): 30
Galium plant response rating [4, 17]: 85
Galium plant response rating [4, 18]: 90
Plant response rating, Galium [4, 19]: 90
Plant response rating, Galium [4, 20]: 98
Plant response rating (scale 0 to 100), Galium ([4]; Preemergence, 125 g ai/ha): 95
Plant response rating, Galium [4, 21]: 60
Plant response rating, Galium [4, 22]: 98
Plant response rating, Galium [4, 23]: 95
Foxtail, Giant plant response rating [5, 17]: 5
Foxtail, Giant plant response rating [5, 18]: 15
Plant response rating, Foxtail, Giant [5, 19]: 10
Plant response rating, Foxtail, Giant [5, 20]: 20
Plant response rating (scale 0 to 100), Foxtail, Giant ([5]; Preemergence, 125 g ai/ha): 100
Plant response rating, Foxtail, Giant [5, 21]: 98
Plant response rating, Foxtail, Giant [5, 22]: 100
Plant response rating, Foxtail, Giant [5, 23]: 100
Johnsongrass plant response rating [6, 17]: 5
Johnsongrass plant response rating [6, 18]: 5
Plant response rating, Johnsongrass [6, 19]: 10
Plant response rating, Johnsongrass [6, 20]: 45
Plant response rating (scale 0 to 100), Johnsongrass ([6]; Preemergence, 125 g ai/ha): 100
Plant response rating, Johnsongrass [6, 21]: 10
Plant response rating, Johnsongrass [6, 22]: 70
Plant response rating, Johnsongrass [6, 23]: 85
Lambsquarters plant response rating [7, 17]: 75
Lambsquarters plant response rating [7, 18]: 85
Plant response rating, Lambsquarters [7, 19]: 90
Plant response rating, Lambsquarters [7, 20]: 95
Plant response rating (scale 0 to 100), Lambsquarters ([7]; Preemergence, 125 g ai/ha): 98
Plant response rating, Lambsquarters [7, 21]: 90
Plant response rating, Lambsquarters [7, 22]: 90
Plant response rating, Lambsquarters [7, 23]: 95
Crabgrass, Large plant response rating [8, 17]: 10
Crabgrass, Large plant response rating [8, 18]: 10
Plant response rating, Crabgrass, Large [8, 19]: 15
Plant response rating, Crabgrass, Large [8, 20]: 20
Plant response rating (scale 0 to 100), Crabgrass, Large ([8]; Preemergence, 125 g ai/ha): 100
Plant response rating, Crabgrass, Large [8, 21]: 100
Plant response rating, Crabgrass, Large [8, 22]: 100
Plant response rating, Crabgrass, Large [8, 23]: 100
Morningglory plant response rating [9, 17]: 85
Morningglory plant response rating [9, 18]: 85
Plant response rating, Morningglory [9, 19]: 85
Plant response rating, Morningglory [9, 20]: 80
Plant response rating (scale 0 to 100), Morningglory ([9]; Preemergence, 125 g ai/ha): 90
Plant response rating, Morningglory [9, 21]: 30
Plant response rating, Morningglory [9, 22]: 5
Plant response rating, Morningglory [9, 23]: 85
Oilseed Rape plant response rating [10, 17]: 5
Oilseed Rape plant response rating [10, 18]: 30
Plant response rating, Oilseed Rape [10, 19]: 60
Plant response rating, Oilseed Rape [10, 20]: 95
Plant response rating (scale 0 to 100), Oilseed Rape ([10]; Preemergence, 125 g ai/ha): 100
Plant response rating, Oilseed Rape [10, 21]: 85
Plant response rating, Oilseed Rape [10, 22]: 98
Plant response rating, Oilseed Rape [10, 23]: 100
Pigweed plant response rating [11, 17]: 80
Pigweed plant response rating [11, 18]: 95
Plant response rating, Pigweed [11, 19]: 95
Plant response rating, Pigweed [11, 20]: 98
Plant response rating (scale 0 to 100), Pigweed ([11]; Preemergence, 125 g ai/ha): 100
Plant response rating, Pigweed [11, 21]: 100
Plant response rating, Pigweed [11, 22]: 100
Plant response rating, Pigweed [11, 23]: 100
Ragweed plant response rating [12, 17]: 80
Ragweed plant response rating [12, 18]: 45
Plant response rating, Ragweed [12, 19]: 55
Plant response rating, Ragweed [12, 20]: 85
Plant response rating (scale 0 to 100), Ragweed ([12]; Preemergence, 125 g ai/ha): 85
Plant response rating, Ragweed [12, 21]: 85
Plant response rating, Ragweed [12, 22]: 20
Plant response rating, Ragweed [12, 23]: 70
Soybean plant response rating (soybean (Glycine max); [17]): 75
Soybean plant response rating (soybean (Glycine max); [18]): 60
Plant response rating, Soybean (soybean (Glycine max); [19]): 60
Plant response rating, Soybean (soybean (Glycine max); [20]): 90
Plant response rating (scale 0 to 100), Soybean (soybean (Glycine max); Preemergence, 125 g ai/ha): 95
Plant response rating, Soybean (soybean (Glycine max); [21]): 80
Plant response rating, Soybean (soybean (Glycine max); [22]): 75
Plant response rating, Soybean (soybean (Glycine max); [23]): 80
Velvetleaf plant response rating [13, 17]: 65
Velvetleaf plant response rating [13, 18]: 75
Plant response rating, Velvetleaf [13, 19]: 70
Plant response rating, Velvetleaf [13, 20]: 85
Plant response rating (scale 0 to 100), Velvetleaf ([13]; Preemergence, 125 g ai/ha): 100
Plant response rating, Velvetleaf [13, 21]: 80
Plant response rating, Velvetleaf [13, 22]: 70
Plant response rating, Velvetleaf [13, 23]: 100
Waterhemp plant response rating [14, 17]: 85
Waterhemp plant response rating [14, 18]: 90
Plant response rating, Waterhemp [14, 19]: 95
Plant response rating, Waterhemp [14, 20]: 98
Plant response rating (scale 0 to 100), Waterhemp ([14]; Preemergence, 125 g ai/ha): 100
Plant response rating, Waterhemp [14, 21]: 100
Plant response rating, Waterhemp [14, 22]: 100
Plant response rating, Waterhemp [14, 23]: 100
Wheat plant response rating [15, 17]: 0
Wheat plant response rating [15, 18]: 0
Plant response rating, Wheat [15, 19]: 0
Plant response rating, Wheat [15, 20]: 5
Plant response rating (scale 0 to 100), Wheat ([15]; Preemergence, 125 g ai/ha): 5
Plant response rating, Wheat [15, 21]: 0
Plant response rating, Wheat [15, 22]: 0
Plant response rating, Wheat [15, 23]: 0
Nutsedge, Yellow plant response rating [16, 17]: 5
Nutsedge, Yellow plant response rating [16, 18]: 5
Plant response rating, Nutsedge, Yellow [16, 19]: 10
Plant response rating, Nutsedge, Yellow [16, 20]: 10
Plant response rating (scale 0 to 100), Nutsedge, Yellow ([16]; Preemergence, 125 g ai/ha): 65
Plant response rating, Nutsedge, Yellow [16, 21]: 0
Plant response rating, Nutsedge, Yellow [16, 22]: 0
Plant response rating, Nutsedge, Yellow [16, 23]: 15
